Values quoted from earlier work, collected in patent US20080003262A1, “COMPOSITIONS AND THERAPEUTIC METHODS OF USE” (DrugTech Corporation, priority 2006, published 2008).

Test system: DIV
Details: intravaginal 2% clindamycin cream or 10% hydrocortisone

C[C@]12CCC(=O)C=C1CC[C@@H]1[C@@H]2[C@@H](O)C[C@@]2(C)[C@H]1CC[C@]2(O)C(=O)CO [hydrocortisone]
Response of DIV to treatment: responds
